Source: PubChem BioAssay (NCI)
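48-hour exposure; five concentrations; linearly interpolated endpoints. The concentration for 50% growth inhibition is given as GI50. TGI denotes the concentration required for complete inhibition of growth.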

Columns and labels:
Assay in all cases: NCI anticancer screen, dose series, 48 h
MCF7 breast = tested on: MCF7 breast
IGROV1 ovarian = tested on: IGROV1 ovarian
M14 melanoma = tested on: M14 melanoma
UACC-62 melanoma = tested on: UACC-62 melanoma
COLO 205 colon = tested on: COLO 205 colon
HCT-116 colon = tested on: HCT-116 colon
SNB-19 CNS = tested on: SNB-19 CNS
OVCAR-5 ovarian = tested on: OVCAR-5 ovarian
SW-620 colon = tested on: SW-620 colon
RXF 393 renal = tested on: RXF 393 renal
SK-OV-3 ovarian = tested on: SK-OV-3 ovarian
OVCAR-3 ovarian = tested on: OVCAR-3 ovarian
U251 CNS = tested on: U251 CNS
NCI/ADR-RES ovarian = tested on: NCI/ADR-RES ovarian
HCC-2998 colon = tested on: HCC-2998 colon
CAKI-1 renal = tested on: CAKI-1 renal
SK-MEL-28 melanoma = tested on: SK-MEL-28 melanoma
NCI-H460 lung = tested on: NCI-H460 lung
HOP-62 NSCLC = tested on: HOP-62 NSCLC
T-47D breast = tested on: T-47D breast
HL-60(TB) leukemia = tested on: HL-60(TB) leukemia
NCI-H23 lung = tested on: NCI-H23 lung
DU-145 prostate = tested on: DU-145 prostate
EKVX NSCLC = tested on: EKVX NSCLC
BT-549 breast = tested on: BT-549 breast
786-0 renal = tested on: 786-0 renal
SK-MEL-2 melanoma = tested on: SK-MEL-2 melanoma
UO-31 renal = tested on: UO-31 renal
ACHN renal = tested on: ACHN renal
K-562 leukemia = tested on: K-562 leukemia
RPMI-8226 leukemia = tested on: RPMI-8226 leukemia
MDA-MB-231 breast = tested on: MDA-MB-231 breast
SN12C renal = tested on: SN12C renal
LOX IMVI melanoma = tested on: LOX IMVI melanoma
HCT-15 colon = tested on: HCT-15 colon
SNB-75 CNS = tested on: SNB-75 CNS
NCI-H226 lung = tested on: NCI-H226 lung
KM12 colon = tested on: KM12 colon
UACC-257 melanoma = tested on: UACC-257 melanoma
SF-268 CNS = tested on: SF-268 CNS
MALME-3M melanoma = tested on: MALME-3M melanoma
TK-10 renal = tested on: TK-10 renal
HS 578T breast = tested on: HS 578T breast
PC-3 prostate = tested on: PC-3 prostate
A498 renal = tested on: A498 renal
OVCAR-8 ovarian = tested on: OVCAR-8 ovarian
NCI-H522 lung = tested on: NCI-H522 lung
HOP-92 NSCLC = tested on: HOP-92 NSCLC
HT29 colon = tested on: HT29 colon
SK-MEL-5 melanoma = tested on: SK-MEL-5 melanoma
SF-539 CNS = tested on: SF-539 CNS
MOLT-4 leukemia = tested on: MOLT-4 leukemia
OVCAR-4 ovarian = tested on: OVCAR-4 ovarian
SF-295 CNS = tested on: SF-295 CNS
MDA-MB-435 = tested on: MDA-MB-435

For COc1cc2c3c(n(CCCN)c(=O)c2cc1OC)-c1ccccc1C3=O, which GI50 (MCF7 breast) is on record?
The GI50 was 0.316 µM.

And the TGI (MCF7 breast)?
Its TGI is 2.11 µM.

What about the GI50 (IGROV1 ovarian) of the same compound?
The GI50 was 1.45 µM.

And the TGI (IGROV1 ovarian)?
The TGI was > 100 µM.

And the GI50 (M14 melanoma)?
Its GI50 is 0.199 µM.

What about the TGI (M14 melanoma) of the same compound?
Its TGI is 2.28 µM.

And the GI50 (UACC-62 melanoma)?
The GI50 was 1.73 µM.

And the TGI (UACC-62 melanoma)?
The TGI was 16 µM.

What about the GI50 (COLO 205 colon) of the same compound?
The GI50 was 0.472 µM.

And the TGI (COLO 205 colon)?
The TGI was 5.72 µM.

And the GI50 (HCT-116 colon)?
Its GI50 is 0.0101 µM.

What about the TGI (HCT-116 colon) of the same compound?
The TGI was 0.172 µM.

And the GI50 (SNB-19 CNS)?
The GI50 was 2.95 µM.

What about the TGI (SNB-19 CNS) of the same compound?
The TGI was > 42 µM.

And the GI50 (OVCAR-5 ovarian)?
Its GI50 is 14.3 µM.

And the TGI (OVCAR-5 ovarian)?
Its TGI is 29.2 µM.

What about the GI50 (SW-620 colon) of the same compound?
Its GI50 is 1.89 µM.

What about the TGI (SW-620 colon) of the same compound?
The TGI was > 100 µM.

And the GI50 (RXF 393 renal)?
Its GI50 is 1.04 µM.

And the TGI (RXF 393 renal)?
The TGI was 2.56 µM.

What about the GI50 (SK-OV-3 ovarian) of the same compound?
The GI50 was 5.62 µM.

What about the TGI (SK-OV-3 ovarian) of the same compound?
The TGI was 23 µM.

What about the GI50 (OVCAR-3 ovarian) of the same compound?
Its GI50 is 0.26 µM.

And the TGI (OVCAR-3 ovarian)?
The TGI was 4.2 µM.

What about the GI50 (U251 CNS) of the same compound?
Its GI50 is 0.557 µM.

And the TGI (U251 CNS)?
Its TGI is 3.43 µM.

What about the GI50 (NCI/ADR-RES ovarian) of the same compound?
Its GI50 is 2.28 µM.

And the TGI (NCI/ADR-RES ovarian)?
The TGI was 9.75 µM.

And the GI50 (HCC-2998 colon)?
Its GI50 is 0.531 µM.

What about the TGI (HCC-2998 colon) of the same compound?
Its TGI is 2.11 µM.

What about the GI50 (CAKI-1 renal) of the same compound?
Its GI50 is 0.282 µM.

And the TGI (CAKI-1 renal)?
Its TGI is 2.94 µM.

What about the GI50 (SK-MEL-28 melanoma) of the same compound?
Its GI50 is 9.99 µM.

And the TGI (SK-MEL-28 melanoma)?
Its TGI is > 46.8 µM.

What about the GI50 (NCI-H460 lung) of the same compound?
The GI50 was 0.176 µM.

What about the GI50 (HOP-62 NSCLC) of the same compound?
Its GI50 is 0.351 µM.

And the TGI (HOP-62 NSCLC)?
Its TGI is 2.96 µM.

And the GI50 (T-47D breast)?
The GI50 was 7.18 µM.

What about the TGI (T-47D breast) of the same compound?
The TGI was 39 µM.

And the GI50 (HL-60(TB) leukemia)?
Its GI50 is 5.09 µM.

And the TGI (HL-60(TB) leukemia)?
Its TGI is > 100 µM.

And the GI50 (NCI-H23 lung)?
The GI50 was 1.25 µM.

What about the TGI (NCI-H23 lung) of the same compound?
Its TGI is 6.03 µM.

And the GI50 (DU-145 prostate)?
Its GI50 is 1.83 µM.

And the TGI (DU-145 prostate)?
The TGI was 4.81 µM.

What about the GI50 (EKVX NSCLC) of the same compound?
Its GI50 is 3.85 µM.

And the TGI (EKVX NSCLC)?
The TGI was 10.3 µM.

And the GI50 (BT-549 breast)?
The GI50 was 4.85 µM.

What about the TGI (BT-549 breast) of the same compound?
Its TGI is 13.9 µM.

And the GI50 (786-0 renal)?
The GI50 was 0.396 µM.

And the TGI (786-0 renal)?
Its TGI is 2.02 µM.

And the GI50 (SK-MEL-2 melanoma)?
The GI50 was 14.3 µM.

What about the TGI (SK-MEL-2 melanoma) of the same compound?
The TGI was 35.5 µM.

What about the GI50 (UO-31 renal) of the same compound?
Its GI50 is 1.8 µM.

And the TGI (UO-31 renal)?
The TGI was 13.1 µM.

And the GI50 (ACHN renal)?
Its GI50 is 1.14 µM.

And the TGI (ACHN renal)?
Its TGI is 8.1 µM.

And the GI50 (K-562 leukemia)?
The GI50 was 0.911 µM.

What about the GI50 (RPMI-8226 leukemia) of the same compound?
The GI50 was 0.0772 µM.

And the GI50 (MDA-MB-231 breast)?
The GI50 was 1.23 µM.

And the TGI (MDA-MB-231 breast)?
Its TGI is 3.02 µM.

And the GI50 (SN12C renal)?
The GI50 was 0.934 µM.

And the TGI (SN12C renal)?
The TGI was 5.08 µM.

And the GI50 (LOX IMVI melanoma)?
The GI50 was 0.125 µM.

And the TGI (LOX IMVI melanoma)?
The TGI was 1.02 µM.

And the GI50 (HCT-15 colon)?
The GI50 was 1 µM.

What about the GI50 (SNB-75 CNS) of the same compound?
Its GI50 is 4.6 µM.

And the TGI (SNB-75 CNS)?
The TGI was 11.6 µM.

What about the GI50 (NCI-H226 lung) of the same compound?
The GI50 was 4.31 µM.

What about the TGI (NCI-H226 lung) of the same compound?
Its TGI is 16.1 µM.

And the GI50 (KM12 colon)?
The GI50 was 0.517 µM.

What about the TGI (KM12 colon) of the same compound?
Its TGI is 2.5 µM.

What about the GI50 (UACC-257 melanoma) of the same compound?
The GI50 was 6.3 µM.

What about the TGI (UACC-257 melanoma) of the same compound?
Its TGI is 27.8 µM.

What about the GI50 (SF-268 CNS) of the same compound?
Its GI50 is 1.71 µM.

And the TGI (SF-268 CNS)?
The TGI was > 21.6 µM.

What about the GI50 (MALME-3M melanoma) of the same compound?
Its GI50 is 0.0918 µM.

What about the TGI (MALME-3M melanoma) of the same compound?
Its TGI is 17.5 µM.

What about the GI50 (TK-10 renal) of the same compound?
The GI50 was 2.14 µM.

What about the TGI (TK-10 renal) of the same compound?
Its TGI is 6.31 µM.

And the GI50 (HS 578T breast)?
Its GI50 is 11.1 µM.

What about the TGI (HS 578T breast) of the same compound?
The TGI was 46.9 µM.

And the GI50 (PC-3 prostate)?
Its GI50 is 0.723 µM.

And the TGI (PC-3 prostate)?
Its TGI is 2.69 µM.

And the GI50 (A498 renal)?
The GI50 was 1.9 µM.

What about the TGI (A498 renal) of the same compound?
The TGI was 9.51 µM.

What about the GI50 (OVCAR-8 ovarian) of the same compound?
Its GI50 is 0.455 µM.

And the TGI (OVCAR-8 ovarian)?
The TGI was 6.65 µM.

What about the GI50 (NCI-H522 lung) of the same compound?
The GI50 was 0.339 µM.

And the TGI (NCI-H522 lung)?
The TGI was 22.7 µM.

And the GI50 (HOP-92 NSCLC)?
Its GI50 is 15.2 µM.

And the TGI (HOP-92 NSCLC)?
Its TGI is 36.7 µM.

What about the GI50 (HT29 colon) of the same compound?
Its GI50 is 0.164 µM.

And the GI50 (SK-MEL-5 melanoma)?
The GI50 was 2.02 µM.

What about the TGI (SK-MEL-5 melanoma) of the same compound?
The TGI was 19.8 µM.

And the GI50 (SF-539 CNS)?
Its GI50 is 1.25 µM.

And the TGI (SF-539 CNS)?
The TGI was 5.23 µM.

What about the TGI (MOLT-4 leukemia) of the same compound?
The TGI was 7.12 µM.

What about the GI50 (OVCAR-4 ovarian) of the same compound?
Its GI50 is 2.29 µM.

What about the TGI (OVCAR-4 ovarian) of the same compound?
The TGI was 12.7 µM.

What about the GI50 (SF-295 CNS) of the same compound?
Its GI50 is 0.0709 µM.

And the TGI (SF-295 CNS)?
The TGI was 5.24 µM.

And the GI50 (MDA-MB-435)?
The GI50 was 0.755 µM.

What about the TGI (MDA-MB-435) of the same compound?
The TGI was 18.9 µM.
